Data taken from patent publication US6489098B1, “Means and methods for monitoring nucleoside reverse transcriptase inhibitor antiretroviral therapy and guiding therapeutic decisions in the treatment of HIV/AIDS” (ViroLogic, Inc., priority 1998, dated 2002).
“Also recorded” adds a separate entry of the source.

Assays:
[1] = tested on: HIV-1 RT mutant resistance test vector T69SSA and V75I; assay: Phenotypic susceptibility assay, site directed RTV T69SSA+V75I; type: cell-based; details: V75I added onto the T69SSA background
Description: (§1) Resistance tests were carried out with resistance test vectors using two host cell types. Resistance test vector viral particles were produced by a first host cell (the resistance test vector host cell) that was prepared by transfecting a packaging host cell with the resistance test vector and the packaging expression vector. The resistance test vector viral particles were then used to infect a second host cell (the target host cell) in which the expression of the indicator gene is measured.
(§2) The resistance test vectors containing a functional luciferase gene cassette were constructed and host cells were transfected with the resistance test vector DNA. […] The IC50 values were determined by plotting percent drug inhibition vs. log 10 drug concentration.
(§3) Host cells were seeded in 10-cm-diameter dishes and were transfected several days after plating with resistance test vector plasmid DNA and the envelope expression vector. […] HIV capsid protein (p24) levels in the harvested cell culture media were determined by an EIA method as described by the manufacturer (SIAC; Frederick, Md.). […] The inhibitory effect of the drug was determined using the following equation: […]

[2] = tested on: HIV-1 RT mutant resistance test vector M41L-T69SSA-T215Y-L210W-RTV; assay: Phenotypic susceptibility assay, site directed RTV M41L+T69SSA+L210W+T215Y; type: cell-based; details: L210W introduced with M41L+T69SSA+T215Y
Description: as §1
(§4) The resistance test vectors containing a functional luciferase gene cassette were constructed and host cells were transfected with the resistance test vector DNA. The resistant test vectors contained patient-derived reverse transcriptase and protease sequences that were either susceptible or resistant to the antiretroviral agents, such as nucleoside reverse transcriptase inhibitors, non-nucleoside reverse transcriptase inhibitors and protease inhibitors. The resistance test vector viral particles produced by transfecting the resistance test vector DNA into host cells, either in the presence or absence of protease inhibitors, were used to infect target host cells grown either in the absence of NRTI or NNRTI or In the presence of increasing concentrations of the drug. The amount of luciferase activIty produced in infected target host cells in the presence of drug was compared to the amount of luciferase produced in infected target host cells in the absence of drug. […] The IC50 values were determined by plotting percent drug inhibition vs. log 10 drug concentration.
as §3

[3] = tested on: HIV-1 RT mutant resistance test vector A62V+V75I; assay: Phenotypic susceptibility assay, site directed RTV A62V+V75I; type: cell-based; details: RTV with A62V+V75I
Description: as §1, §2, §3

[4] = tested on: resistance test vectors containing five (M41L, D67N, K70R, T215Y, K219Q) or six (M41L, D67N, K70R, L210W, T215Y, K219Q) AZT resistance associated mutations; assay: Phenotypic susceptibility assay, site directed RTVs with five or six AZT resistance associated mutations; type: cell-based, HIV-1
Description: as §1, §2, §3

[5] = tested on: HIV-1 RT mutant resistance test vector V75I; assay: Phenotypic susceptibility assay, site directed RTV V75I; type: cell-based; details: RTV with V75I vs wild type RTV
Description: as §1
as §4, with “drug.” for “drug. The amount of luciferase activIty produced in infected target host cells in the presence of drug was compared to the amount of luciferase produced in infected target host cells in the absence of drug.”
as §3
Genotypic changes that are observed to correlate with changes in phenotypic patterns of drug susceptibility are evaluated by construction of resistance test vectors containing the specific mutation on a defined, wild-type (drug susceptible) genetic background. […]

HIV clinical isolates = details: cited from earlier work
[6] = tested on: HIV with RT Lys65→Arg mutation; details: Lys65→Arg (K65R); cited from earlier work
[7] = tested on: HIV with multi-nucleoside resistance complex (A62V, V75I, F77L, Y116F and Q115M); details: cited from earlier work
[8] = tested on: HIV with RT mutation at codon 50; details: mutation at codon 50, in vitro; cited from earlier work
[9] = tested on: RTV clone 285-1 (T69SSA) versus revertant 285-1 (SSA69T); assay: Phenotypic susceptibility assay, patient 285 clone and T69SSA revertant; type: cell-based, HIV-1; details: T69SSA→SSA69T in a clone of a patient's virus
[10] = tested on: HIV with M41L, L210W, T215Y plus M184V; details: cited from earlier work

For `Cc1cn([C@H]2C[C@H](N=[N+]=[N-])[C@@H](CO)O2)c(=O)[nH]c1=O` [AZT, zidovudine], the “effect on susceptibility (words)” value [1] was “increased susceptibility to AZT”, the “effect on susceptibility (words)” value [2] was “substantial decrease in susceptibility to AZT” and the “effect on susceptibility (words)” value [3] was “slight increases in susceptibility to AZT; also recorded: did not alter the reduced level of AZT susceptibility caused by the V75I mutation”. For the same molecule, the “effect on susceptibility (words)” value [4] was “reduced susceptibility to d4T and AZT” and the “effect on susceptibility (words)” value [5] was “increase in the susceptibility to AZT; also recorded: increased AZT susceptibility; also recorded: increased AZT susceptibility slightly”.

For `Nc1ccn([C@H]2CC[C@@H](CO)O2)c(=O)n1` [ddC, zalcitabine], the “fold reduction in susceptibility for each ten-fold decrease in ZDV sensitivity” value (HIV clinical isolates) is given as “two-fold” and the “fold increase in IC50 / reduction in susceptibility” value [6] is given as “five-fold to ten-fold”.

In the case of `Cc1cn([C@H]2C=C[C@@H](CO)O2)c(=O)[nH]c1=O` [d4T, stavudine], the “effect on susceptibility (words)” value [1] is listed as “decreased susceptibility to d4T”, the “cross-resistance of isolates with substitutions at codons 62, 75, 77, 116 and 115” value ([7]; patients on prolonged ZDV plus ddI or ddC) is listed as “cross-resistance” and the “effect on susceptibility (words)” value [3] is listed as “no differences in their susceptibility to d4T; also recorded: had no effect on d4T; also recorded: had no affect on d4T susceptibility”. The “effect on susceptibility (words)” value [4] was “reduced susceptibility to d4T and AZT”, the “effect on susceptibility (words)” value [5] was “did not alter d4T susceptibility; also recorded: did not reduce d4T susceptibility; also recorded: had no affect on d4T susceptibility” and the “effect on susceptibility (words)” value ([5]; listed as d4t) was “no effect on d4t-susceptibility”. For the same molecule, the “fold reduction in sensitivity” value [8] was 30 fold and the “effect of reversion of the T69SSA mutation” value [9] was “reduced d4T resistance”.

For `O=c1[nH]cnc2c1ncn2[C@H]1CC[C@@H](CO)O1` [ddI, didanosine], the “fold reduction in susceptibility for each ten-fold decrease in ZDV sensitivity” value (HIV clinical isolates) is given as 2.2 fold and the “fold increase in IC50 / reduction in susceptibility” value [6] is given as “three-fold to five-fold”.

In the case of `Nc1nc(NC2CC2)c2ncn([C@H]3C=C[C@@H](CO)C3)c2n1` [ABC, abacavir], the “fold reduction in susceptibility” value ([7]; A62V, V75I, F77L, Y116F and Q115M) is given as 17 fold and the “fold reduction in susceptibility” value [10] is given as “eight fold”.
